From article PMC5108082, “Pharmacokinetics, toxicity, and cytochrome P450 modulatory activity of plumbagin” (BMC Pharmacology & Toxicology, 2016)

Legend:
[1] = system: human colon epithelial cell monolayer Caco-2; conditions: cited from earlier work
in vivo = conditions: male, Wistar, rat, po, 100 mg/kg
Protocol: Pharmacokinetic investigation was performed in 4 male Wistar rats (weighing 200–350 g) following a single oral dose of 100 mg/kg body weight plumbagin (1 mL). The control group received 20 % Tween-80 (1 mL). Blood samples (500 μL each) were collected from the tail vein of each rat at 0, 1, 2, 3, 5, 8, 24, 48, and 72 h after dosing. Plasma was separated from whole blood samples through centrifugation at 3000 × g for 10 min.
Concentrations of plumbagin in plasma and urine samples collected from all animals were measured using liquid chromatographic-mass spectrometry (LC-MS/MS) according to the previously described method with modifications. The limits of quantification (LOQ) and detection (LOD) for plumbagin were 5 and 2 ng/mL plasma, respectively. Recovery of the compound in plasma after sample preparation procedure was between 82 and 92 %. The assay intra- and inter-day coefficients of variation (% CV) were 0.7–4.7 % and 3.9–8.3 %, respectively. In brief, plasma sample (100 μL) was mixed with 10 ng/mL honokiol (5 μL) and ethyl acetate (1 mL) and centrifuged at 12,000 × g for 15 min. The upper layer was transferred to a new tube and evaporated to dryness under nitrogen flow. The dried residue was reconstituted with 100 μL of the mobile phase and a 5 μL aliquot was injected onto the LC–MS/MS. The samples were collected from the metabolic cages at 24, 48, 72, 96, and 120 h. All were centrifuged at 1500 × g for 10 min and the supernatant (100 μL) was extracted with ethyl acetate (1 mL). The extract was dried and the residue was reconstituted with 100 μL of the mobile phase and a 5 μL aliquot was injected onto the LC–MS/MS.
The LC-MS/MS system used consists of Agilent 1100 Separation Module (Agilent Technologies, CA, USA) solvent and sample delivery, Av QTRAP 5500 Triple Quadrupole Mass Spectrometer (AB Sciex, Foster City, CA, USA) equipped with CID, and Multiple Reactions Monitoring (MRM). Mass spectrometric analysis was performed in the negative-ion mode (ESI). The following parameters of the turbo ion spray were used: ion spray voltage = −4500 V; the ion source gas 1 (GS1), gas 2 (GS2), curtain gas (CUR) and collision gas (CAD) were 50, 60, 25 and 5, respectively; and the desolvation gas (nitrogen) heated to 500 °C. Separation was performed using Hypersil gold reversed-phase C18 column (50 mm × 4.6 mm i.d., 5 μM: Thermo Scientific, Fremont, CA, USA) with the mobile phase consisting of a mixture of (A) water containing 0.1 % formic acid and (B) 100 % methanol, running with gradient mode at the flow rate of 0.6 mL/min at 25 °C (Table 1). On the basic of the full-scan mass spectra of each analyze, the most abundant ions were selected and the mass spectrometer was set to monitor the transitions of the precursors to the product ions as follows: m/z 187– >159 for plumbagin, and 265– >224 for honokiol (internal standard). The system was controlled by Analyst^TM software (AB Sciex, Foster City, CA, USA).
Pharmacokinetic parameters were determined using a non-compartmental analysis using WinNonLin^TM software (version 6.3, Pharsights, Certara, USA). Concentrations of drugs lower than the limit of quantification (LOQ) were expressed as zero (undetectable). The Cmax (maximum concentration); tmax (time of maximum concentration) were determined by direct inspection of the plasma concentration–time data. […] The extrapolated AUC from the last sampling time to infinity was estimated from Ct/elimination rate constant (λz). λz was calculated from at least five concentration–time points of elimination phase. Apparent oral clearance (CL/F) was calculated as dose/AUC0−∞. Volume of distribution (Vz/F) was calculated as CL/F/z, and the terminal half-life (t1/2z) was calculated as 0.693/λz. Mean residence time (MRT) was calculated from the ratio of AUMC0-α)/AUC0−∞.

[2] = system: 3D7 chloroquine-sensitive P. falciparum; conditions: 3D7 clone; read-out: median IC50; cited from earlier work

In the case of `CC1=CC(=O)c2c(O)cccc2C1=O` [plumbagin, 5-hydroxy-2-methyl-1,4-naphthoquinone], the “influence of efflux protein on permeability” value ([1]; Caco-2) is given as “no influence of efflux protein”, the permeability ([1]; Caco-2) is given as “moderate” and the transport mechanism [1] is given as “passive transport”. The AUC(0-inf) (in vivo) was 6.71 µg·h/mL, the AUC(0-t) (in vivo) was 6.51 µg·h/mL and the CL/F (in vivo) was 15 L/h/kg. For the same molecule, the Cmax (in vivo) was 0.46 µg/mL, the Tmax (in vivo) was 5 h and the Vd/F (in vivo) was 220 L/kg. The “t1/2 (elimination half-life)” value (in vivo) was 9.63 (3.04) h, the “time up to which detected in systemic circulation” value (in vivo) was 48 h and the “time up to which detected in urine (complete elimination in urine)” value (in vivo) was 96 h. For the same molecule, the “plumbagin excreted in urine” value (in vivo; 72 h) was 15 (9) μg, the half-life (in vivo; t1/2 (elimination half-life)) was about 9.6 h and the IC50 [2] was 0.58 µM.
